Test results taken from patent publication US20230052152A1, “COMPOUNDS FOR TREATMENT OF ALZHEIMER'S DISEASE” (SULFATEQ B.V., priority 2019, published 2023).
Entries after “also recorded” stand apart in the source; their conditions may differ.

How the values were obtained:
SH-SY5Y cells [1] = test: Glutamate-induced excitotoxicity, differentiated SH-SY5Y neuronal-like cells, Neutral Red viability; format: cell-based; settings: Homo sapiens, 60 mM glutamate 24 h; for EC50: 30 min pre-incubation, Neutral Red viability; for Emax: maximal restoration of viability
Experimental: (§1) Human SH-SY5Y neuroblastoma cells (ATCC #CRL-2266) were maintained in DMEM medium containing 10% fetal bovine serum and 1% Penicillin-Streptomycin solution (#P4333, Sigma-Aldrich, St. Louis, Mo.) and passaged when the cultures reach a confluency of 70%. Prior to experiments, SH-SY5Y cells were differentiated by serum reduction (to 1%) and stimulation with 10 μM retinoic acid (#R7882, Sigma-Aldrich, St. Louis, Mo.) for 72 hours. Differentiated SH-SY5Y cells were seeded at 0.6·10^5 cells/cm^2 for all experiments.
(§2) Differentiated SH-SY5Y cells were pre-incubated with SUL compounds (dose range 8·10^−4 to 1·10^−8 M) under standard culture conditions for 30 min and then stimulated with either 1-glutamate (60 mM; #12843-0, Sigma-Aldrich, St. Louis, Mo.) or dopamine (100 μM; #H8502, Sigma, St. Louis, Mo.) for an additional 24 h. Neutral Red Assay Solution (#N2889, Sigma-Aldrich, St. Louis, Mo.) was added to the cultures at a 10% (v/v) concentration during the final 4 hours of culture. Cells were washed with warm PBS and Neutral red solubilized in acid ethanol (1% acetic acid in 50% EtOH). Absorbances were recorded at 540 nm in a CLARIOStar Plus plate reader (BMG Labtech, Germany).
(§3) All experiments were performed in triplicate per condition and averaged. Data obtained from two individual experiments were used for evaluation in GraphPad Prism 8.0 (GraphPad Software Inc, Ca). 4 parameter non-linear regression was used to determine the efficacy and potency of SUL compounds to reduce the excitotoxicity induced by either 1-glutamate or dopamine.
SH-SY5Y neuroblastoma cells were differentiated into neuronal-like cells according to established protocols and stimulated with 60 mM glutamate to induce excitotoxicity.

WT and APP/PS1 mice [2] = test: Fear conditioning (hippocampal dependent context memory test), freezing; format: in vivo, mouse; settings: chronic oral via food 2.5 to 6 moa, versus vehicle food
Source text: (§4) The APP/PS1 mouse model is a widely used A-beta pathology model for Alzheimer's disease (AD) (1 of the 2 main neuropathological hallmarks of AD). These mice contain human transgenes for APP (Swedish mutation) and PSEN1 (L166P mutation), which will lead to pathological amyloid deposition in the brain and impairments in hippocampal dependent memory and Long Term Potentiation (LTP) starting at ˜3 months of age (3 moa).
(§5) The effectiveness of SUL-138 ((6-hydroxy-2,5,7,8-tetramethylchroman-2-yl)(4-(2-hydroxyethyl)piperazin-1-yl)methanone) in relieving/preventing common pathology in the APP/PS1 model was tested. The effect on memory was tested in a hippocampal dependent context test (Fear conditioning (FC)) and synaptic connectivity was tested via electrophysiological LTP (Long-term potentiation) measurements. Both are impaired in this mouse model under basal conditions. In addition, Phenotypers (Sylics) were used to exclude that SUL-138 induces atypical behavior after chronic oral treatment.
Wild type (WT) and APP/PS1 mice were each divided in 2 groups, either receiving vehicle or SUL-138 via their food. Group size amounted 12 animals. […]
FC: mice were exposed to a context for 2 min after which they received a 0.7 mA footshock. […] 24 h later mice were put in the same context and freezing levels were measured for 2 min.
Memory was assessed at 6 moa by measuring freezing following context acquisition.

WT and APP/PS1 mice [3] = test: Phenotypers spontaneous behavior after chronic oral treatment; format: in vivo, mouse; settings: 3 days in phenotypers
Experimental: as §5
(§6) Wild type (WT) and APP/PS1 mice were each divided in 2 groups, either receiving vehicle or SUL-138 via their food. Group size amounted 12 animals. Based on mouse weight of ˜30 g, food intake of ˜5 g/day and desired oral intake of 30 mg/day/kg, food pellets were sprayed with SUL-138 in water with 0.0145% ethanol at 1 g SUL-138 in 5 kg food. Vehicle food was prepared by spraying with the same volume of 0.0145% ethanol containing water.
Phenotypers (provided by Sylics, Amsterdam, Netherlands): Mice were housed in the phenotypers for 3 days during which spontaneous behavior: activity, dark/light, habituation, kinematics, light dark phase transition pattern and sheltering were measured.

APP/PS1 mice = test: Plaque load (anti-Amyloid beta 6E10 staining of hippocampal slices); format: in vivo, mouse; settings: three months oral, versus vehicle
Experimental: APP/PS1 (n=10) and wildtype mice (WT, n=10) mice were treated, either with vehicle or SUL-138. Mice were treated for 3 months starting at 3 months of age with either SUL-138 or vehicle treated food pellets. The mice were sacrificed at 6 months of age, the age at which (among others) hippocampal dependent memory impairment and apparent plaque load are expected.
4% PFA perfused brains, stored on sucrose, were sliced at […] using a cryostat (−20° C.; Leica). Hippocampal slices (n=2/animal; 5 animals/group) were washed 3×10 min with 1× PBS, and then blocked for 1 h in Blocking solution (10 mL 1× PBS+500 μL normal Goat Serum+0.250 g Bovine Serum Albumin+20 μL Triton-100). The slices were incubated overnight with anti-Amyloid beta (6E10) (ITK Diagnostics, 1:400), washed 3×10 min with 1× PBS and then incubated with secondary Goat anti-mouse Alexa fluorescent 488 antibody (Sigma-Aldrich, 1:250) for 2 h. Then slices were washed 3×10 min with 1× PBS and mounted on slides.
Slices were imaged using the Zeiss Cell Discover 7 high content microscope with LSM900 confocal head. Using Fiji, both hippocampi were selected separately for 5 animals per group (yellow line in FIG. 3A) and number and size of plaques were measured (FIG. 3B, C). The mean number of plaques and plaque size per animal were used for statistical analyses in GraphPad 8 using Student's t-test, one-sided.

[4] = system: prostaglandin synthases and the thromboxane synthase A; test: Hippocampal protein expression of prostaglandin synthases and thromboxane synthase A; format: in vivo, mouse; settings: hippocampal tissue, wildtype or APP/PS1 mice
Source text: Hippocampal tissue from wildtype and APP/PS1 mice was examined for the protein expression of prostaglandin synthases and the thromboxane synthase A. Peptides resembling the prostaglandin synthase PTGS1, PTGES2, PTGES3, and PTGFS were found in the hippocampal tissue of both wildtype and APP/PS1 mice (Table 4). No protein fragments of PTGS2, PTGDS, PTGES1, PTGIS and TXA could be found.

SH-SY5Y cells [5] = test: Dopamine-induced excitotoxicity, differentiated SH-SY5Y neuronal-like cells, Neutral Red viability; format: cell-based; settings: Homo sapiens, dopamine 24 h; for EC50: 30 min pre-incubation, Neutral Red viability; for Emax: maximal restoration of viability
Experimental: as §1, §2, §3
Differentiated SH-SY5Y neuroblastoma cells were stimulated with 150 μM dopamine to induce excitotoxicity.

Bioavailability in brain = format: in vivo
WT and APP/PS1 mice [6] = test: Long-term potentiation (LTP) in acute hippocampal slices after chronic oral treatment; format: in vivo, mouse; settings: 3×100 Hz stimulation, p<0.05
Source text: as §4, §6
(§7) Mice were treated chronically between 2.5 moa (pre-pathology/memory deficit) and 6 moa (age at which clear neuropathology and memory deficits occur) prior to testing.
LTP: Acute coronal hippocampal slices were kept in artificial CSF and LTP was measured after 3×100 Hz stimulation.
Between 8-14 hippocampal slices per group (2A: WT ctrl, WT SUL-138, 2B: APP ctrl, APP SUL-138) received LTP evoked by 3×100 Hz stimulation (tetanus) of 1 sec separated by 20 sec. The slope was measured for 60 min. LTP was expressed as a percentage of baseline. […]

[7] = Overall welfare and body weight during chronic oral treatment; format: in vivo, mouse; settings: vehicle versus SUL-138 treated animals
Experimental: as §6, §7

SH-SY5Y cells [8] = test: Glutamate-induced excitotoxicity, differentiated SH-SY5Y neuronal-like cells, Neutral Red viability; format: cell-based, human; settings: 60 mM glutamate, 10^−3 to 10^−8 M

SMILES	EC50 (SH-SY5Y cells [1])	Emax (SH-SY5Y cells [1])	Freezing levels (memory) (WT and APP/PS1 mice [2]; APP/PS1 mice)	Freezing levels (memory) (WT and APP/PS1 mice [2]; WT mice)	Spontaneous behavior (activity, dark/light, habituation, kinematics, light dark phase transition pattern, sheltering) (WT and APP/PS1 mice [3])	Plaque size (APP/PS1 mice; p=0.0021)	Number of plaques (APP/PS1 mice; p=0.0138)	Protein expression of prostaglandin synthesizing enzymes [4]	EC50 (SH-SY5Y cells [5])	Emax (SH-SY5Y cells [5])	Bioavailability in brain (Bioavailability in brain)	LTP maintenance (min 30-60) (WT and APP/PS1 mice [6]; APP mice)	LTP maintenance (min 30-60) (WT and APP/PS1 mice [6]; WT mice)	Overall welfare [7]	Effectiveness in increasing viability of glutamate-challenged cells versus the other SUL-compounds (SH-SY5Y cells [8])
Cc1c(C)c2c(c(C)c1O)CC[C@@](C)(C(=O)N1CCN(CCO)CC1)O2 [SUL-138, (S)-(6-hydroxy-2,5,7,8-tetramethylchroman-2-yl)(4-(2-hydroxyethyl)piperazin-1-yl)methanone]	1420 nM	100%	increased; also recorded: restored to WT levels	increased	did not induce differences	reduced	reduced	did not alter	660 nM	100%	appears to be high	significantly (p<0.05) higher; also recorded: restore in APP/PS1 mice memory and LTP to control levels	significantly (p<0.05) higher	did not show differences	
Cc1c(C)c2c(c(C)c1O)CC[C@@](C)(C(=O)N[C@@H]1CCCNC1)O2 [SUL-13, (S)-6-hydroxy-2,5,7,8-tetramethyl-N-((R)-piperidin-3-yl)chromane-2-carboxamide]	3820 nM	100%							324 nM	91.9%					
Cc1c(C)c2c(c(C)c1O)CCC(C)(C(=O)O)O2 (centres unmarked) [SUL-11, 6-hydroxy-2,5,7,8-tetramethylchroman-2-carboxylic acid, reference compound]	4620 nM	76.7%							8350 nM	79.5%					clearly less effective
Cc1c(C)c2c(c(C)c1O)CC[C@@](C)(C(=O)N1CCNCC1)O2 [SUL-151, (S)-(6-hydroxy-2,5,7,8-tetramethylchroman-2-yl)(piperazin-1-yl)methanone]	96.1 nM	100%							69.2 nM	100%					
Cc1c(C)c(O)c(CC[C@@](C)(O)C(=O)N2CCN(CCO)CC2)c(C)c1O [SUL-138M2, 4-(2,5-dihydroxy-3,4,6-trimethylphenyl)-2-hydroxy-1-(4-(2-hydroxyethyl)piperazin-1-yl)-2-methylbutan-1-one]	4430 nM	100%							1690 nM	94.7%					
Cc1c(C)c2c(c(C)c1O)CC[C@](C)(C(=O)N1CCNCC1)O2 [SUL-150, (R)-(6-hydroxy-2,5,7,8-tetramethylchroman-2-yl)(piperazin-1-yl)methanone]	122 nM	100%							55.5 nM	100%					
